{
  "source": "patent US9409906B2",
  "about": "“Pyrimido[4,5-B]indole derivatives and use thereof in the expansion of hematopoietic stem cells” (UNIVERSITÉ DE MONTRÉAL, priority 2012, dated 2016)",
  "key": {"[1]": {"system": "CD34+ CB cells transplanted in NSG mice", "test": "Engraftment of cultured CD34+ cord blood cells in NSG mice (FIG. 7)", "conditions": "outcome of 5,000 CD34+ CB cells, 7 days culture, 8-weeks post transplantation (FIG. 7A)", "source_text": "These experiments were done in short term cultures i.e. 7 days."}, "[2]": {"system": "CD34+ cord blood cells", "test": "FACS analysis of differentiation of CD34+ cord blood cells (FIG. 4B-4D)", "conditions": "FACS / cytological analysis"}, "[3]": {"system": "Mobilized peripheral blood CD34(+) cells", "test": "Reversibility (wash-out) of compound effect on CD34+CD45RA− percentage (FIG. 2)", "format": "cell-based, human", "conditions": "for reversibility of effect on CD34+CD45RA− percentage after wash-out: 7 days with compound, washed, 8 additional days", "method": "FIG. 2: Effect of compound 1 is reversible. Mobilized peripheral blood CD34(+) cells cultured for 7 days with compound 1 (shown in green) or vehicle (DMSO, shown in blue) were washed and re-plated in fresh media with or without Compound addition (solid vs dashed line respectively). Cells were cultured for 8 additional days and the percentage of CD34+CD45RA− was monitored.\nThis effect is best shown in FIG. 2 where CD34+ mobilized peripheral blood cells are cultured in the presence of Compound 1 for up to 7 days, at which time the Compound 1 is removed by washing the cells."}, "[4]": {"system": "CD34+ mobilized peripheral blood cells", "test": "FACS analysis of differentiation of CD34+ mobilized peripheral blood cells (FIG. 4A)", "format": "cell-based, human", "description": "FIG. 4A illustrates the impact of Compound 1 on mobilized peripheral blood cell differentiation. Following a 7 day expansion, a relatively pure (>85% CD34^+) population of mobilized peripheral blood was exposed to control the (DMSO) or Compound 1 or SR1 or Compound 1+SR1."}},
  "note": "Entries after “also recorded” stand apart in the source; their conditions may differ.",
  "data": [
    {"smiles": "COC(=O)c1ccc2c(c1)[nH]c1ncnc(NCCCN3CCCCC3)c12", "note": "[Compound 1, Methyl 4-((3-(piperidin-1-yl)propyl)amino)-9H-pyrimido[4,5-b]indole-7-carboxylate]", "values": [
      {"measurement": "human CD45+ engraftment / reconstitution activity", "setting": "[1]", "result": "clear effect on reconstitution activity"},
      {"measurement": "human CD45+ engraftment / reconstitution activity", "setting": "[1]; listed as compound 1", "result": "human CD45+ engraftment"},
      {"measurement": "differentiation of CD34+ cord blood cells", "setting": "[2]", "result": "reduces differentiation"},
      {"measurement": "reversibility of effect on CD34+CD45RA− percentage after wash-out", "setting": "[3]", "result": "rapidly reversible"},
      {"measurement": "reversibility of effect on CD34+CD45RA− percentage after wash-out", "setting": "[3]; listed as compound 1", "result": "reversible"},
      {"measurement": "compound-free exposure until cells acquired differentiation markers as in control cultures", "setting": "[3]; after wash-out at day 7", "result": "≤ 2", "unit": "days"},
      {"measurement": "loss of CD34 cell surface expression", "setting": "[4]; 7 day expansion, optimal levels, vs DMSO control", "result": "partly abrogated"},
      {"measurement": "differentiation of CD34+ mobilized peripheral blood cells", "setting": "[4]; FACS / cytological analysis", "result": "prevent cell differentiation; also recorded: reduces differentiation"},
      {"measurement": "CD34+ cell population compared to DMSO treated control cells", "setting": "[4]; FACS analysis", "result": "able to expand CD34+ cell population"},
      {"measurement": "CD34+CD45RA− cells vs SR1 or control cultures", "setting": "[4]; FIG. 4A, 4B bottom panels", "result": "more numerous"}
    ]}
  ]
}
